{"source": "patent US20030203969A1", "about": "“Pharmaceutically active aromatic guanylhydrazones” (priority 2000, published 2003)", "key": {"[1]": {"test_system": "T-cell-tropic HIV-1NL4/3 strain", "experiment": "Inhibition of T-cell-tropic HIV-1 NL4/3 replication in de novo infected Jurkat cells (p24 antigen)", "type": "cell-based", "conditions": "d10", "method": "HIV replication was measured either by p24 HIV Antigen Capture Assay Kit (ELISA; HIVAG-1 Monoclonal kit BIA011; Abbott) following the manufacturer's recommendation, or by using the Quantiplex HIV-1 RNA 3.0 Assay (bDNA) system (Chiron Diagnostics). The latter assay is a signal amplification nucleic acid probe assay (employing a sandwich nucleic acid hybridization procedure) for direct quantitation of HIV RNA in human plasma. There, in brief, HIV-1 is first concentrated from plasma by centrifugation. After release of genomic HIV-1 RNA from the virions, the RNA is captured to a microwell by a set of specific, synthetic oligonucleotide capture probes. A set of target probes hybridize to both the viral RNA and the pre-amplifier probes. The capture probes, comprised of 17 individual capture extenders, and the target probes, comprised of 81 individual target extenders, bind to different regions of the pol gene of the viral RNA. The amplifier probe hybridizes to the pre-amplifier forming a branched DNA (bDNA) complex. Then, multiple copies of an alkaline phosphatase labeled probe are hybridized to this immobilized bDNA complex. Detection is achieved by incubating the entire complex with a chemoluminescent substrate. Light emission is directly proportional to the amount of HIV-1 RNA present in each sample, and results are recorded as relative light units by an appropriate analyzer.\nJurkat cells (species: human T-cell leukemia; special characteristics: cells are permissive for growth of T-cell tropic HIV strains; source:ATCC Cat.No. TIB 152) or PM1 cells (species: clonal derivative of human HUT 78 cells; special characteristics: cells are permissive for growth of macrophage-tropic and T-cell tropic HIV strains; source: Dr. Marvin Reitz, courtesy of the NIH AIDS Research and Reference Reagent Program Cat.No. 3038) were stimulated with Phytohemagglutinin (PHA-P, Product No. L9132 from Sigma) in a concentration of 2 μg/ml (1.5×10^6 cells/ml) and Hexadimethrine Bromide (Polybrene, Product No. H9268 from Sigma) in a concentration of 2 μg/ml (1.5×10^6 cells/ml) in RPMI 1640 medium containing 10% fetal calf serum (FCS, Pansystems GmbH) and antibiotics for 3 days.\nFor HIV-1 infection, 5×10^7 cells were resuspended in 500 μl culture medium without test drugs and incubated in a 50 ml blue-cap-tube at 37° C. for 5 hrs with HIV-1 high titer viral stocks. Jurkat cells were infected with the T-cell tropic strain HIV-1 NL4-3, PM1 cells with the macrophage tropic strain HIV-1 Ba-L (both from the NIH AIDS Research and Reference Reagent Program). After infection, cells were washed twice with PBS without Ca^2+ and Mg^2+ to avoid false positive p24 antigen determination. Cells were resuspended, and identical aliquots (1×10^6/ml) of infected cells were further cultured in 10 ml medium with test drugs at various concentrations, or in medium with DMSO as control for calculation of the inhibition of virus replication (in %].\nCulture medium was changed and cells were split at days 3 and 7 of the experiments. Viability of the cells (Trypan-blue staining), cell counts and p24 antigen levels were determined at days 3, 7 and 10 of the experiments. No significant differences in cell viability were observed (˜85-90% living cells).\nAt day 10 of infection, the HIV strains replicated vigorously in untreated cultures. Numbers describe percent inhibition of HIV replication as compared to control experiments."}, "[2]": {"test_system": "omni-drug-resistant HIV-1", "experiment": "Inhibition of omni-drug-resistant HIV-1 in PM1 cells (p24)", "type": "cell-based", "method": "PM1 cells were infected with an “omni-drug-resistant HIV-1” (recombinant HIV-1 NL4-3 in which the Protease gene and the 5′ part of the Reverse Transcriptase gene was replaced by the corresponding sequences from a omni-drug-resistant clinical isolate, resistant to all currently available anti-HIV drugs. Infected cells were incubated with Compound No. 4 at a concentration of 250, 500 and 1000 nM or DMSO (control). The culture medium was changed every third day. Cell viability (Trypan-blue staining), cell counts and p24 levels were determined at day 6 and 12.\nAt day 12 of infection, the virus replicated vigorously in untreated cultures. Numbers describe percent inhibition of HIV-1 replication as compared to control experiments."}, "HBV": {"test_system": "HBV", "experiment": "HBV replication in chronically infected HepG2 2.2.15 cells (TaqMan PCR of HBV DNA)", "type": "cell-based, Hepatitis B virus", "conditions": "for IC50: chronically HBV-infected HepG2 2.2.15 cells", "method": "(§1) Human HepG2-2.2.15 cells (ATCC Cat. No. CRL-11997), chronically infected with HBV, are plated in 96-well microtiter plates in DMEM medium supplemented with fetal bovine serum. After incubation at 37° C. in a humidified, 5% CO2 environment for 16-24 hours, the monolayer of HepG2-2.2.15 cells is washed and the medium is replaced with complete medium containing various concentrations of test compound. Every three days during the experiments, the culture medium is replaced with fresh medium containing the appropriately diluted test compound. Six days following the initial administration of the test compound, the cell culture supernatant is collected and clarified by centrifugation. The cell viability is evaluated by a dye uptake procedure (Promega's Cell Titer Aqueous One Solution). Virion-associated HBV DNA present in the tissue culture supernatant is amplified employing PCR technology using primer pairs derived from the HBV strain ayw. Subsequently, the PCR-amplified HBV DNA is detected in real-time by monitoring increases in fluorescence signals that result from exonucleolytic degradation of a quenched fluorescent probe molecule following hybridization of the probe to the amplified HBV DNA (TaqMan; Perkin-Elmer)."}, "HepG2 cells": {"test_system": "HepG2 cells", "type": "cell-based, human", "conditions": "Lamivudine-resistant HBV experiment, read-out: TC50 (the source's name)", "method": "as §1\nThe same type of experiments was additionally performed with a mutant, Lamivudine-resistant HBV strain, which was transfected into HepG2 cells."}, "BCBL-1 cells": {"test_system": "BCBL-1 cells", "experiment": "Compound toxicity in BCBL-1 cells (Cell Titer Aqueous One)", "type": "cell-based, human", "conditions": "read-out: TC50 (the source's name)", "method": "The human BCBL-1 cell line is available through the AIDS Reference and Reagent Program (Cat.No. 3233). This cell line was derived from a body cavity-based lymphoma latently infected with HHV-8. Culturing these cells in the presence of phorbol ester induces a lytic infection cycle, resulting in the release of viral particles into the medium. Compound efficacy in this proposed assay is determined using TaqMan PCR technology, and compound toxicity is measured by addition of Promega's Cell Titer Aqueous One Solution (metabolic dye).\n12. Duplicate plates will be set up plating media in place of TPA for evaluation of compound toxicity.\n12. Twenty microliters of Cell Titer Aqueous One Solution (Promega) will be added to each well of the toxicity plates. Plates will be incubated at 37° C. in a humidified CO2 incubator for 4 hours or until sufficient color development has occurred. Plates will be read on a VMax microtiter plate reader at a wavelength of 490/650 nm. Toxicity of the test compound will be determined by comparing the optical density of test wells with that of control wells."}}, "note": "Like-named read-outs stand apart in the source and are kept apart here."}
{"molecule": "CC(=NNC(=N)N)c1cc(NC(=O)CCCCCCCCC(=O)Nc2cc(C(C)=NNC(=N)N)cc(C(C)=NNC(=N)N)c2)cc(C(C)=NNC(=N)N)c1", "note": "[Compound 4, N,N′-bis (3,5-diacetylphenyl) decane diamide tetrakis (amidinohydrazone)]", "values": [{"measurement": "percent inhibition of HIV replication as compared to control", "setting": "[1]; HIV-1 NL4/3, 0.5 μM", "value": 31, "unit": "%"}, {"measurement": "percent inhibition of HIV replication as compared to control", "setting": "[1]; HIV-1 NL4/3, 1.0 μM", "value": 85, "unit": "%"}, {"measurement": "percent inhibition of HIV-1 replication as compared to control", "setting": "[2]; omni-drug-resistant HIV-1, 0.25 μM, d6", "value": 15, "unit": "%"}, {"measurement": "percent inhibition of HIV-1 replication as compared to control", "setting": "[2]; omni-drug-resistant HIV-1, 0.25 μM, d12", "value": 64, "unit": "%"}, {"measurement": "percent inhibition of HIV-1 replication as compared to control", "setting": "[2]; omni-drug-resistant HIV-1, 0.5 μM, d6", "value": 30, "unit": "%"}, {"measurement": "percent inhibition of HIV-1 replication as compared to control", "setting": "[2]; omni-drug-resistant HIV-1, 0.5 μM, d12", "value": 95, "unit": "%"}, {"measurement": "percent inhibition of HIV-1 replication as compared to control", "setting": "[2]; omni-drug-resistant HIV-1, 1.0 μM, d6", "value": 58, "unit": "%"}, {"measurement": "percent inhibition of HIV-1 replication as compared to control", "setting": "[2]; omni-drug-resistant HIV-1, 1.0 μM, d12", "value": 97, "unit": "%"}, {"measurement": "Comments", "setting": "HBV; HBV, HepG2 2.2.15 cells", "value": "Active"}, {"measurement": "IC50", "setting": "HBV; six days, read-out: IC50 (μM) Virion-DNA", "value": 3.19, "unit": "µM"}, {"measurement": "IC50", "setting": "HBV; read-out: IC50 (μM) Intracellular Viral DNA", "value": 4.96, "unit": "µM"}, {"measurement": "CC50", "setting": "HepG2 cells", "value": 24.7, "unit": "µM"}, {"measurement": "CC50", "setting": "BCBL-1 cells", "value": 78.9, "unit": "µM"}]}
